Experimental data published in PubChem BioAssay (NCI).
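In this assay, cells in 96-well plates receive the compound at five concentrations for 48 hours. Endpoints are linearly interpolated between the surrounding concentrations. TGI: concentration producing complete growth inhibition.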

Legend:
Experiment in all cases: NCI anticancer screen, dose series, 48 h
786-0 renal = system: 786-0 renal
A498 renal = system: A498 renal
A549 NSCLC = system: A549 NSCLC
ACHN renal = system: ACHN renal
CAKI-1 renal = system: CAKI-1 renal
CCRF-CEM leukemia = system: CCRF-CEM leukemia
COLO 205 colon = system: COLO 205 colon
DU-145 prostate = system: DU-145 prostate
EKVX NSCLC = system: EKVX NSCLC
HCC-2998 colon = system: HCC-2998 colon
HCT-116 colon = system: HCT-116 colon
HCT-15 colon = system: HCT-15 colon
HL-60(TB) leukemia = system: HL-60(TB) leukemia
HOP-62 NSCLC = system: HOP-62 NSCLC
HOP-92 NSCLC = system: HOP-92 NSCLC
HS 578T breast = system: HS 578T breast
HT29 colon = system: HT29 colon
IGROV1 ovarian = system: IGROV1 ovarian
K-562 leukemia = system: K-562 leukemia
KM12 colon = system: KM12 colon
LOX IMVI melanoma = system: LOX IMVI melanoma
M14 melanoma = system: M14 melanoma
MALME-3M melanoma = system: MALME-3M melanoma
MCF7 breast = system: MCF7 breast
MDA-MB-231 breast = system: MDA-MB-231 breast
MDA-MB-435 = system: MDA-MB-435
MDA-N = system: MDA-N
MOLT-4 leukemia = system: MOLT-4 leukemia
NCI-H226 lung = system: NCI-H226 lung
NCI-H23 lung = system: NCI-H23 lung
NCI-H460 lung = system: NCI-H460 lung
NCI-H522 lung = system: NCI-H522 lung
NCI/ADR-RES ovarian = system: NCI/ADR-RES ovarian
OVCAR-3 ovarian = system: OVCAR-3 ovarian
OVCAR-4 ovarian = system: OVCAR-4 ovarian
OVCAR-5 ovarian = system: OVCAR-5 ovarian
OVCAR-8 ovarian = system: OVCAR-8 ovarian
PC-3 prostate = system: PC-3 prostate
RXF 393 renal = system: RXF 393 renal
SF-268 CNS = system: SF-268 CNS
SF-295 CNS = system: SF-295 CNS
SF-539 CNS = system: SF-539 CNS
SK-MEL-28 melanoma = system: SK-MEL-28 melanoma
SK-OV-3 ovarian = system: SK-OV-3 ovarian
SN12C renal = system: SN12C renal
SNB-19 CNS = system: SNB-19 CNS
SNB-75 CNS = system: SNB-75 CNS
SR leukemia = system: SR leukemia
SW-620 colon = system: SW-620 colon
T-47D breast = system: T-47D breast
TK-10 renal = system: TK-10 renal
U251 CNS = system: U251 CNS
UACC-257 melanoma = system: UACC-257 melanoma
UACC-62 melanoma = system: UACC-62 melanoma

Measured: TGI

CCOC(=O)c1c(SC(=O)c2cc(OC)c(OC)c(OC)c2)n(-c2ccccc2)c(=S)n(-c2ccccc2)c1=O
> 100 µM: all assays above
